Columns and labels:
[1] = biological target: human IDO1 (LLTC-hIDO1 cells) (Homo sapiens, UniProt P14902); test: Cell-based assay for IDO1 inhibition (kynurenine in supernatant); conditions: IDO1-transfected Lewis Lung carcinoma cells, 24 h; read-out: Cellular IC50
Method: Culture supernatant from each well was then transferred into a fresh, flat-bottomed 96-well plate, mixed with trichloroacetic acid (10% final concentration) and incubated for 20 min at 60° C. […] The absorbance of each well was read at 480 nm, and the concentration that inhibited 50% cellular enzyme activity was calculated.

[2] = system: Lewis Lung carcinoma cells transfected to express IDO1 (LLTC-hIDO1); test: MTT cell viability in the cellular IDO1 assay; assay type: cell-based; conditions: same experiment as cellular IDO1 assay
Method: The viability of the cells in each well in the same experiment was determined using the 3-(4,5-dimethylthiazolyl-2-yl)-2,5-diphenyltetrazolium bromide (MTT) colourimetric assay. After the removal of the supernatant for determination of IDO1 inhibition, the cells were incubated with MTT (500 μg/mL) until crystal formation was observed. […] DMSO (100 μL/well) was added to dissolve the crystals and then the absorbance in each well was measured at 570 nm. Cell viability in each well was expressed as a percentage of untreated controls. Triplicate cultures were used for all experiments unless stated otherwise.

[3] = biological target: Recombinant human IDO1 (rhIDO1) (Homo sapiens (Human), UniProt P14902); test: Enzymatic assay for IDO1 activity; assay type: biochemical; conditions: rhIDO1 9 nM, 80 μM TRP, 37° C. 30 min
Method: Recombinant human IDO1 (rhIDO1) was expressed and purified from cultures of EC538 strain of E. coli transformed with pREP4 and pQE9-IDO plasmid. Reaction mixes were set up in 384-well microplates containing 50 mM phosphate buffer, 10 mM ascorbic, 10 μM methylene blue, 100 μg/mL catalase, 80 μM TRP, 0.01% Tween 20 (v/v) mixed with rhIDO1 (15 μL) at a final concentration of 9 nM in a total volume of 30 μL assay medium. The plates were incubated at 37° C. for 30 min, and the enzymatic reaction was terminated by adding piperidine (200 mM) and heated at 65° C. for 20 min. Fluorescence intensity was read at λex 400 nm and λem 500 nm. Test compounds were dissolved in 100% DMSO and pre-diluted in assay medium prior to adding rhIDO1. IDO1 inhibition (%) was calculated as
[formula] All experiments were carried out in triplicates, and statistical Analyses were conducted in Prism v5 (Graphpad Software, Inc., La Jolla, Calif., USA). Cell-Based Assay for IDO1 Inhibition

Chain of Recombinant human IDO1 (rhIDO1) (P14902 whole entry): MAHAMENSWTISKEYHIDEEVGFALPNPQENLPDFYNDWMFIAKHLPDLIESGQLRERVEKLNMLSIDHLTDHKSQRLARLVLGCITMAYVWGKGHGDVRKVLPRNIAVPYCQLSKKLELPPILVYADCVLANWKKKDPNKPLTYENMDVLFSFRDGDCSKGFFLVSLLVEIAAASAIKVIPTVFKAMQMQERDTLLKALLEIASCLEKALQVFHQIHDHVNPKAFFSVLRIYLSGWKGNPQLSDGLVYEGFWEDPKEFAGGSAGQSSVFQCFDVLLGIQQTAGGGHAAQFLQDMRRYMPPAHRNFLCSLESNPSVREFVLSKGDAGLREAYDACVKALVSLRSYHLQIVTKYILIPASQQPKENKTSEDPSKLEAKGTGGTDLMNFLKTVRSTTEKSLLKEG

| SMILES | IC50 [1] | IC50 [2] | IC50 [3] |
| --- | --- | --- | --- |
| CSc1ccc2c(N)noc2n1 [Compound 79, 6-(Methylthio)isoxazolo[5,4-b]pyridin-3-amine] | 1 to 10 µM | > 100 µM | 10 to 100 µM |
| COc1ccnc2onc(N)c12 [Compound 51, 4-Methoxyisoxazolo[5,4-b]pyridin-3-amine] |  |  | > 100 µM |
| CN(C)c1ccc2c(N)noc2n1 [Compound 18, N^6,N^6-Dimethylisoxazolo[5,4-b]pyridine-3,6-diamine] |  |  | > 100 µM |
| CC(C)c1ccc2c(N)noc2n1 [Compound 48, 6-Isopropylisoxazolo[5,4-b]pyridin-3-amine] | 10 to 100 µM | > 100 µM | > 100 µM |
| Cc1cc(C)c2c(N)noc2n1 [Compound 4, 4,6-Dimethylisoxazolo[5,4-b]pyridin-3-amine] | 1 to 10 µM | > 100 µM | 10 to 100 µM |
| Nc1noc2nccc(-c3ccccc3)c12 [Compound 13, 4-Phenylisoxazolo[5,4-b]pyridin-3-amine] | > 100 µM | > 100 µM | > 100 µM |
| Cc1cc(Cl)nc2onc(N)c12 [Compound 42, 6-Chloro-4-methylisoxazolo[5,4-b]pyridin-3-amine] | < 1 µM | > 100 µM | < 1 µM |
| COc1ccc(Nc2ccc3c(N)noc3n2)cc1 [Compound 96, N^6-(4-Methoxyphenyl)isoxazolo[5,4-b]pyridine-3,6-diamine] | > 100 µM | > 100 µM | > 100 µM |
| Nc1noc2nc(Oc3cccc(Cl)c3)ccc12 [Compound 85, 6-(3-Chlorophenoxy)isoxazolo[5,4-b]pyridin-3-amine] |  |  | > 100 µM |
| Nc1noc2ncc(-c3ccc(F)cc3)cc12 [Compound 30, 5-(4-Fluorophenyl)isoxazolo[5,4-b]pyridin-3-amine] |  |  | > 100 µM |
| COc1ccc(Oc2ccc3c(N)noc3n2)cc1 [Compound 92, 6-(4-Methoxyphenoxy)isoxazolo[5,4-b]pyridin-3-amine] |  |  | > 100 µM |
| Nc1noc2nc(Oc3cccc(OC(F)(F)F)c3)ccc12 [Compound 88, 6-(3-(Trifluoromethoxy)phenoxy)isoxazolo[5,4-b]pyridin-3-amine] | 10 to 100 µM | > 100 µM | > 100 µM |
| Cn1nccc1-c1ccc2c(N)noc2n1 [Compound 75, 6-(1-Methyl-1H-pyrazol-5-yl)isoxazolo[5,4-b]pyridin-3-amine] | > 100 µM | > 100 µM | > 100 µM |
| Nc1noc2ncncc12 [Compound 12, Isoxazolo[5,4-d]pyrimidin-3-amine] | 1 to 10 µM | > 100 µM | > 100 µM |
| Nc1noc2nc3c(cc12)CCCCC3 [Compound 60, 6,7,8,9-Tetrahydro-5H-cyclohepta[b]isoxazolo[4,5-e]pyridin-3-amine] |  |  | > 100 µM |
| Nc1noc2nc(OCCN3CCOCC3)ccc12 [Compound 78, 6-(2-Morpholinoethoxy)isoxazolo[5,4-b]pyridin-3-amine] | > 100 µM | > 100 µM | > 100 µM |
| COc1cccc(Nc2ccc3c(N)noc3n2)c1 [Compound 95, N^6-(3-Methoxyphenyl)isoxazolo[5,4-b]pyridine-3,6-diamine] | 1 to 10 µM | > 100 µM | > 100 µM |
| Cc1nc2onc(N)c2c(C)c1OC(F)F [Compound 52, 5-(Difluoromethoxy)-4,6-dimethylisoxazolo[5,4-b]pyridin-3-amine] | 10 to 100 µM | > 100 µM | > 100 µM |
| CN(C)CCCOc1ccc2c(N)noc2n1 [Compound 76, 6-(3-(Dimethylamino)propoxy)isoxazolo[5,4-b]pyridin-3-amine] | > 100 µM | > 100 µM | > 100 µM |
| Nc1noc2nc(-c3cccs3)ccc12 [Compound 74, 6-(2-Thienyl)isoxazolo[5,4-b]pyridin-3-amine] | 1 to 10 µM | > 100 µM | > 100 µM |
| CNc1noc2nc(C)c(Cl)c(C)c12 [Compound 20, 5-Chloro-N^3,4,6-trimethylisoxazolo[5,4-b]pyridin-3-amine] | 10 to 100 µM | > 100 µM | > 100 µM |
| Nc1noc2nc(-c3ccc(Cl)cc3Cl)ccc12 [Compound 72, 6-(2,4-Dichlorophenyl)isoxazolo[5,4-b]pyridin-3-amine] | > 100 µM | > 100 µM | > 100 µM |
| Nc1noc2ncc(I)cc12 [Compound 16, 5-Iodoisoxazolo[5,4-b]pyridin-3-amine] | < 1 µM | > 100 µM | 1 to 10 µM |

| SMILES | IC50 [1] | IC50 [2] | IC50 [3] |
| --- | --- | --- | --- |
| Nc1noc2nc(N3CCOCC3)c(F)cc12 [Compound 55, 5-Fluoro-6-morpholinoisoxazolo[5,4-b]pyridin-3-amine] |  |  | > 100 µM |
| CSc1nc(-c2ccccc2)nc2onc(N)c12 [Compound 65, 4-(Methylthio)-6-phenylisoxazolo[5,4-d]pyrimidin-3-amine] | > 100 µM | > 100 µM | > 100 µM |
| Nc1noc2ncc(F)cc12 [Compound 14, 5-Fluoroisoxazolo[5,4-b]pyridin-3-amine] |  |  | > 100 µM |
| Nc1noc2nc(Oc3cccc(C(F)(F)F)c3)ccc12 [Compound 93, 6-(3-(Trifluoromethyl)phenoxy)isoxazolo[5,4-b]pyridin-3-amine] | 10 to 100 µM | > 100 µM | > 100 µM |
| CN(C)c1nc2onc(N)c2cc1F [Compound 57, 5-Fluoro-N6,N6-dimethylisoxazolo[5,4-b]pyridine-3,6-diamine] | > 100 µM | > 100 µM | > 100 µM |
| COc1ccccc1Oc1ccc2c(N)noc2n1 [Compound 90, 6-(2-Methoxyphenoxy)isoxazolo[5,4-b]pyridin-3-amine] | 10 to 100 µM | > 100 µM | > 100 µM |
| Nc1noc2nc(C(F)(F)F)ccc12 [Compound 47, 6-(Trifluoromethyl)isoxazolo[5,4-b]pyridin-3-amine] | 1 to 10 µM | > 100 µM | < 1 µM |
| Nc1ccc2c(N)noc2n1 [Compound 43, Isoxazolo[5,4-b]pyridine-3,6-diamine] |  |  | > 100 µM |
| Nc1noc2nc3c(cc12)COCC3 [Compound 62, 7,8-Dihydro-5H-isoxazolo[5,4-b]pyrano[3,4-e]pyridin-3-amine] |  |  | > 100 µM |
| Nc1noc2nc(Oc3ccc(Cl)cc3)ccc12 [Compound 86, 6-(4-Chlorophenoxy)isoxazolo[5,4-b]pyridin-3-amine] |  |  | > 100 µM |
| Cc1cc2c(N)noc2nc1C [Compound 45, 5,6-Dimethylisoxazolo[5,4-b]pyridin-3-amine] | 10 to 100 µM | > 100 µM | > 100 µM |
| Cc1ccc2c(N)noc2n1 [Compound 7, 6-Methylisoxazolo[5,4-b]pyridin-3-amine] |  |  | > 100 µM |
| Nc1noc2nc(-c3ccc(F)cc3)ccc12 [Compound 71, 6-(4-Fluorophenyl)isoxazolo[5,4-b]pyridin-3-amine] | 10 to 100 µM | > 100 µM | > 100 µM |
| Nc1noc2nc(Cl)c(Cl)cc12 [Compound 67, 5,6-Dichloroisoxazolo[5,4-b]pyridin-3-amine] | 1 to 10 µM | > 100 µM | < 1 µM |
| Nc1noc2nc(Oc3ccccc3)ccc12 [Compound 83, 6-Phenoxyisoxazolo[5,4-b]pyridin-3-amine] |  |  | > 100 µM |
| Nc1noc2ncc(Br)cc12 [Compound 6, 5-Bromoisoxazolo[5,4-b]pyridin-3-amine] | < 1 µM | > 100 µM | 10 to 100 µM |
| CCOC(=O)c1cc2c(N)noc2nc1C [Compound 53, Ethyl 3-amino-6-methylisoxazolo[5,4-b]pyridine-5-carboxylate] |  |  | > 100 µM |
| Nc1noc2ccncc12 [Compound 17, Isoxazolo[4,5-c]pyridin-3-amine] |  |  | > 100 µM |
| Nc1noc2ncc(-c3ccccc3O)cc12 [Compound 28, 2-(3-Aminoisoxazolo[5,4-b]pyridin-5-yl)phenol] |  |  | > 100 µM |
| COc1cccc(Oc2ccc3c(N)noc3n2)c1 [Compound 91, 6-(3-Methoxyphenoxy)isoxazolo[5,4-b]pyridin-3-amine] |  |  | > 100 µM |
| Cc1nc2onc(N)c2c(C)c1C [Compound 5, 4,5,6-Trimethylisoxazolo[5,4-b]pyridin-3-amine] |  |  | 10 to 100 µM |
| CC1(C)CCc2nc3onc(N)c3cc2C1 [Compound 61, 6,6-Dimethyl-5,6,7,8-tetrahydroisoxazolo[5,4-b]quinolin-3-amine] |  |  | > 100 µM |
| CN(C)c1ccnc2onc(N)c12 [Compound 19, N^4,N^4-Dimethylisoxazolo[5,4-b]pyridine-3,4-diamine] |  |  | > 100 µM |
